Assay results taken from patent publication US7759373B2, “Large conductance calcium-activated K channel opener” (Mitsubishi Tanabe Pharma Corporation, priority 2001, dated 2010).
Structures can show the parent of a compound that is named as a salt.

Key:
[1] = tested on: rhythmic bladder contractions induced by substance P; experiment: Inhibitory effect on the rhythmic bladder contractions induced by substance P in anesthetized rats; format: in vivo, rat; settings: time during which frequency of rhythmic contraction was completely inhibited, 0.25 mg/kg of the compound, substance P infusion
Outline: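 Urethane-anesthetized female Sprague-Dawley rats with rhythmic bladder contractions driven by i.v. substance P (0.33 μg/kg/min). Compound given i.v. in saline/0.5% Tween 80 once contractions stable 15 min; intravesical pressure monitored, duration of 100% inhibition ranked A ≥20, B ≥10, C <10 min.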

[2] = tested on: isolated rabbit urinary bladder; experiment: Relaxation effect on potassium-induced contraction of isolated rabbit urinary bladder; format: cell-based; settings: Oryctolagus cuniculus; 50% relaxation concentration; high-K+ (30 mM) pre-contracted rabbit bladder strips; relaxation as percentage of the maximum produced by 0.1 mM papaverine; read-out: EC50 value range
Outline: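 Mucosa-free longitudinal bladder strips from male NZW rabbits, held at 37 °C in Krebs solution gassed with 95% O2/5% CO2, were precontracted with 30 mM K+. Compounds were added cumulatively (10^−8–10^−4 M), with isometric relaxation expressed relative to 0.1 mM papaverine maximum. EC50 was derived and reported as rank ranges.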

Structure (SMILES) | 100% inhibition time range [1] | melting point | EC50 [2]
COC(=O)c1nc(-c2ccc(F)cc2)oc1-c1ccsc1 [Preparation Example 622] | B (A≧20>B≧10>C (minute)) | 213 to 214 °C | 
COCc1[nH]c(-c2ccc(Cl)s2)nc1-c1cccnc1.Cl.Cl [Preparation example 120, 2-(5-chlorothiophen-2-yl)-5-methoxymethyl-4-(3-pyridyl) imidazole dihydrochloride] | C (A≧20>B≧10>C (minute)) | 245 to 248 °C (dec.) | ≤ 0.5 µM
CCCc1nc(-c2ccc(Cl)cc2)[nH]c1-c1ccccc1 [Preparation example 60] |  | 147 to 149 °C | 1 to 3 µM
CCOC(=O)c1sccc1-c1nc(CC)c(-c2cccnc2)[nH]1 [Preparation example 10] |  | 127 to 129 °C | 1 to 3 µM
C[S+]([O-])Cc1nc(-c2ccc(F)cc2)oc1-c1ccsc1 (stereo not drawn) [Preparation Example 624] | C (A≧20>B≧10>C (minute)) | 173 to 174.5 °C | 
CCONC(=O)Cc1nc(-c2ccc(F)cc2)oc1-c1ccsc1 [Preparation Example 377] | C (A≧20>B≧10>C (minute)) | 183 to 184 °C | 1 to 3 µM
CCCc1nc(-c2ccc(F)cc2)[nH]c1-c1ccc(C#N)cc1 [Preparation example 95] |  | 240 to 242 °C | 1 to 3 µM
CCOC(=O)Cc1nc(-c2ccc(F)cc2)oc1I [Preparation Example 295] | B (A≧20>B≧10>C (minute)) | 120 to 122 °C | 
CSCc1nc(-c2ccc(F)cc2)[nH]c1-c1cccnc1 [Preparation example 133] | C (A≧20>B≧10>C (minute)) | 172 to 174 °C | 
CCc1nc(-c2ccc(Cl)s2)oc1-c1cccnc1.Cl [Preparation example 63, 2-(5-chlorothiophen-2-yl)-4-ethyl-5-(3-pyridyl)oxazole hydrochloride] | C (A≧20>B≧10>C (minute)) | 201 to 204 °C | 
CCc1nc(-c2ccc(F)cc2)[nH]c1-c1ccccc1 [Preparation example 61] | A (A≧20>B≧10>C (minute)) | 169 to 170 °C | 1 to 3 µM
O=C(O)Cc1nc(-c2ccc(Cl)cc2)oc1-c1cccs1 [Preparation Example 192] |  | 214 to 215 °C | 
CCCc1nc(-c2ccc(F)cc2)[nH]c1-c1cccc(OC)c1 (as salt: HCl) [Preparation example 96] |  | 120 to 122 °C | 
CCc1nc(-c2ccc(F)cc2)[nH]c1-c1cscn1 (as salt: HCl) [Preparation example 52] |  | 267 to 269 °C | 
CCCc1nc(-c2ccc3ccccc3c2)[nH]c1-c1ccccc1 (as salt: HCl) [Preparation example 32] |  | 189 to 190 °C | 
CCCc1nc(-c2cccc(Cl)c2)[nH]c1-c1ccccc1 (as salt: HCl) [Preparation example 29] |  | 202 to 204 °C | 
CCCc1nc(-c2ccc(N(C)C)cc2)[nH]c1-c1cccs1 (as salt: HCl) [Preparation example 2] |  | 170 to 172 °C | 
Cl.O=C(O)Cc1nc(-c2ccc(Cl)s2)oc1-c1cccnc1 |  | 234 to 238 °C (dec.) | 
CCc1nc(-c2ccc(C#N)cc2)[nH]c1-c1ccccc1 (as salt: HCl) [Preparation example 27] |  | 285 to 288 °C | 

Structure (SMILES) | 100% inhibition time range [1] | melting point | EC50 [2]
CCc1nc(-c2ccccc2Cl)[nH]c1-c1cccnc1 (as salt: HCl) [Preparation example 12] |  | 221 to 223 °C | 
CCCc1nc(-c2ccccc2[N+](=O)[O-])[nH]c1-c1ccccc1 (as salt: HCl) [Preparation example 39] |  | 233 to 236 °C | 
CCOC(=O)Cc1nc(-c2ccc(COC(C)=O)cc2)oc1-c1ccc(Cl)s1 [Preparation Example 426] |  | 112 to 113 °C | 
CCOC(=O)Cc1nc(-c2ccc3ncccc3c2)oc1-c1ccsc1 [Preparation Example 411] |  | 130 to 133 °C | 
COc1ccccc1-c1c[nH]c(-c2ccc(F)cc2)n1 (as salt: hydrochloride) [Preparation example 66, 2-(4-fluorophenyl)-4-(2-methoxyphenyl)imidazole] |  | 245 to 248 °C | 
CCCc1nc(-c2cncc(C)c2)[nH]c1-c1cccs1 (as salt: HCl) [Preparation example 7] |  | 183 to 185 °C | 
OCCc1[nH]c(-c2ccc(Cl)s2)nc1-c1cccnc1 (as salt: hydrochloride) [Preparation example 146, 2-(5-chloro-thiophen-2-yl)-5-hydroxyethyl-4-(3-pyridyl)imidazole] |  | 179 to 180 °C | 
CCOC(=O)Cc1nc(-c2ccc(C)cc2)oc1-c1cccs1 [Preparation Example 196] |  | 125 to 127 °C | 
CCc1nc(-c2ccc(F)cc2)[nH]c1-c1ccccc1OC (as salt: HCl) [Preparation example 84] |  | 200 to 203 °C (dec.) | 
COCc1nc(-c2cccc(F)c2)[nH]c1-c1ccccc1 (as salt: HCl) [Preparation example 123] |  | 185 to 188 °C | 
CSCc1nc(-c2ccc(C#N)cc2)[nH]c1-c1cccnc1 [Preparation example 134] |  | 209 to 211 °C | 
NC(=O)Cc1nc(-c2ccc(F)cc2)[nH]c1-c1ccsc1 [Preparation example 44] |  | 200 to 202 °C (dec.) | 
CCOC(=O)Cc1nc(-c2ccc(OC)c(F)c2)oc1-c1cccs1 [Preparation Example 382] |  | 117 to 117.5 °C | 
CCCc1nc(-c2ccc(F)cc2)[nH]c1-c1ccccc1C(N)=O (as salt: HCl) [Preparation example 101] |  | 186 to 189 °C | 
CCCc1nc(-c2ccc(NC)cc2)[nH]c1-c1cccs1 (as salt: HCl) [Preparation example 3] |  | 175 to 180 °C | 
CCCc1nc(-c2ccc(F)cc2)[nH]c1-c1cc(Cl)ccc1O (as salt: HCl) [Preparation example 92] |  | 262 to 264 °C | 
CCCc1c[nH]c(-c2ccc(F)cc2)n1 [Preparation example 76] |  | 168 to 170 °C | 
CCCc1nc(-c2ccc([N+](=O)[O-])cc2)[nH]c1-c1cccs1 (as salt: HCl) [Preparation example 9] |  | 278 to 281 °C | 
O=CNc1[nH]c(-c2ccc(F)cc2)nc1-c1ccccc1 [Preparation example 105, 5-formylamino-2-(4-fluorophenyl)-4-phenylimidazole] |  | 245 to 247 °C | 

Structure (SMILES) | 100% inhibition time range [1] | melting point | EC50 [2]
Cc1ccc(-c2ncc(-c3cccnc3)[nH]2)cn1 (as salt: HCl) [Preparation example 26] |  | 269 to 273 °C | 
CCc1nc(-c2ccc(C)nc2)[nH]c1-c1ccccc1 (as salt: HCl) [Preparation example 28] |  | 248 to 251 °C | 
O=C(O)Cc1nc(-c2ccc(F)cc2)oc1-c1ccsc1 [Preparation Example 618] |  | 207 to 209 °C | 
CCOC(=O)c1nc(-c2ccc(F)cc2)[nH]c1CC [Preparation example 69, ethyl 5-ethyl-2-(4-fluorophenyl)imidazol-4-carboxylate] |  | 197 to 198 °C | 
CCc1nc(-c2ccc(C)nc2)[nH]c1-c1cncs1 (as salt: HCl) [Preparation example 83] |  | 247 to 251 °C | 
CSCc1nc(-c2ccc(C#N)cc2)[nH]c1-c1ccccc1 (as salt: HCl) [Preparation example 132] |  | 256 to 259 °C | 
CCCc1nc(C2CCC(=O)N2)[nH]c1-c1cccs1 (stereo not drawn) (as salt: HCl) [Preparation example 4] |  | 234 to 237 °C | 
OCc1nc(-c2ccc(F)cc2)[nH]c1-c1ccccc1 [Preparation example 117] |  | 240 to 243 °C | 
OCCc1nc(-c2ccc(F)cc2)oc1-c1ccsc1 [Preparation Example 619] |  | 110 to 111 °C | 
CCOC(=O)Cc1nc(-c2ccc(N(C)C)cc2)oc1-c1ccc(Cl)s1 [Preparation Example 384] |  | 118 to 119 °C | 
O=C(O)Cc1nc(-c2ccc(F)cc2)oc1-c1cccs1 [Preparation Example 189] |  | 208 to 209 °C | 
O=C(O)Cc1nc(-c2ccc(F)cc2)oc1-c1ccccc1 (as salt: Na) [Preparation Example 153] |  | > 300 °C | 
CCOC(=O)Cc1nc(-c2ccc(OC)c(C)c2)oc1-c1ccsc1 [Preparation Example 410] |  | 84 to 86 °C | 
OCc1nc(-c2cccc(F)c2)[nH]c1-c1ccccc1 [Preparation example 115] |  | 232 to 234 °C | 
N#Cc1ccc(-c2ncc(-c3cccnc3)[nH]2)cc1 (as salt: HCl) [Preparation example 23] |  | 325 to 328 °C | 
CCCc1nc(-c2ccc[nH]2)[nH]c1-c1ccccc1 (as salt: HCl) [Preparation example 35] |  | 220 to 222 °C | 
CCCc1nc(-c2ccc(F)cc2)[nH]c1-c1ccc(F)cc1 (as salt: HCl) [Preparation example 87] |  | 233 to 235 °C | 
N#CCCc1nc(-c2ccc(F)cc2)[nH]c1-c1ccccc1 [Preparation example 62] | C (A≧20>B≧10>C (minute)) | 176 to 178 °C | 
Fc1ccc(-c2ncc(-c3cccnc3)[nH]2)cc1 (as salt: HCl) [Preparation example 22] |  | 192 to 195 °C | 
